Source: ChEMBL document CHEMBL6134818, “Development of 3-arylaminothiophenic-2-carboxylic acid derivatives as new FTO inhibitors showing potent antileukemia activities” (Eur J Med Chem, 2025)

Key:
[1] = target: Alpha-ketoglutarate-dependent dioxygenase FTO (Homo sapiens, UniProt Q9C0B1); assay: Inhibition of N-terminal truncated FTO demethylation (unknown origin) using 5'-ATTGCCATTCTCGATAGG(dm6A)TCCGGTCAAACCTAGACGAA-3' ssDNA template incubated for 2 hrs by PAGE-based assay
NB-4 = assay: Anti-proliferative activity against human NB4 cells assessed as inhibition of cell viability incubated for 72 hrs by CCK8 assay; assay type: functional, cell-based; conditions: NB-4, 72 h
MOLM-13 = assay: Anti-proliferative activity against human MOLM-13 cells assessed as inhibition of cell viability incubated for 72 hrs by CCK8 assay; assay type: functional, cell-based; conditions: MOLM-13, 72 h

Sequence of Alpha-ketoglutarate-dependent dioxygenase FTO (Q9C0B1 whole entry, the tested form may be a part): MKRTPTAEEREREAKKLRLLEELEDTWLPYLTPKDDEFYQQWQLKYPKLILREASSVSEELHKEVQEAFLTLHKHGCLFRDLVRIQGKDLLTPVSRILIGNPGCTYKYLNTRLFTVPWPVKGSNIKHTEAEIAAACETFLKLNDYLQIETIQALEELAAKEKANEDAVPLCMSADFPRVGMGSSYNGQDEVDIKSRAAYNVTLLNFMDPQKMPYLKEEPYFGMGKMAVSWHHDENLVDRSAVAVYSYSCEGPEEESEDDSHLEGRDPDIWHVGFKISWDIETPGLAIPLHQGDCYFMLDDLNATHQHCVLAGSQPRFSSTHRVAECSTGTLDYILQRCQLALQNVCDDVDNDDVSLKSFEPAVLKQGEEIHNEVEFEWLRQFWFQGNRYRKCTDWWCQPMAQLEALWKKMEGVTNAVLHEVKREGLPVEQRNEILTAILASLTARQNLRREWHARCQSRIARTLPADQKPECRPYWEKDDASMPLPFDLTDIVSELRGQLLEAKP

SMILES: Cc1n[nH]c(C)c1-c1cc(C2CC2)c(Nc2ccsc2C(=O)NC#N)c(C2CC2)c1
- IC50 [1]: 270 nM

SMILES: Cc1n[nH]c(C)c1-c1cc(C2CC2)c(Nc2ccsc2C(=O)NO)c(C2CC2)c1
- IC50 (NB-4): 300 nM
- IC50 (MOLM-13): 300 nM

SMILES: Cc1n[nH]c(C)c1-c1cc(Cl)c(Nc2ccsc2C(=O)O)c(Cl)c1
- IC50 [1]: 680 nM
